Where “and” joins values, the source holds several entries; their conditions need not be identical. Identical values can stand only once.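 A five-concentration, 48-hour dose response in 96-well plates underlies each endpoint, interpolated linearly between surrounding concentrations. The concentration for 50% growth inhibition is given as GI50. The concentration for full growth arrest is given as TGI.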
Assays:
Assay in all cases: NCI anticancer screen, dose series, 48 h
[1] = tested on: HCT-116 colon
[2] = tested on: KM12 colon
[3] = tested on: NCI-H460 lung
[4] = tested on: SK-OV-3 ovarian
[5] = tested on: SNB-75 CNS
[6] = tested on: SW-620 colon
[7] = tested on: U251 CNS
[8] = tested on: MDA-MB-435
[9] = tested on: PC-3 prostate
[10] = tested on: RPMI-8226 leukemia

| SMILES | GI50 [1] [nM] | TGI [1] [µM] | GI50 [2] [nM] | TGI [2] [µM] | GI50 [3] [nM] | TGI [3] [µM] | GI50 [4] [nM] | TGI [4] [µM] | GI50 [5] [nM] | TGI [5] [µM] | GI50 [6] [nM] | TGI [6] [µM] | GI50 [7] [nM] | TGI [7] | GI50 [8] [nM] | TGI [8] [µM] | GI50 [9] [nM] | TGI [9] [µM] | GI50 [10] [µM] | TGI [10] [µM] |
| --- | --- | --- | --- | --- | --- | --- | --- | --- | --- | --- | --- | --- | --- | --- | --- | --- | --- | --- | --- | --- |
| CCC[CH2][Sn]([CH2]CCC)([O]C(=O)c1cc(F)ccc1F)[O]C(=O)c1cc(F)ccc1F | 1250 | 2.5 | 1600 | 3.28 | 1850 | 3.56 | 2790 | 5.64 | 1130 | 2.49 | 619 | 1.91 | 888 | 2.11 µM | – | – | – | – | – | – |
| C#CCOc1cccc(Nc2ncnc3cc(NC(=O)C=C)ccc23)c1 | 4020 | > 100 | 10400 | > 100 | 10400 | > 100 | 7880 | > 100 | – | – | 3150 | 27.8 | 17400 | > 100 µM | 2080 | > 100 | 8360 | > 100 | 4.56 | 38.8 |
| CCOC(=O)/C(C#N)=C\Sc1ccccc1 | – | 59.8 | – | > 100 | – | 83.1 | – | 74.7 | – | 53.9 | – | 72.6 | – | 29 µM | – | – | – | – | – | > 100 |
| COc1ccc(/C=C\c2cc(OC)c(OC)c(OC)c2)cc1OC(=O)CC(N)C(=O)O (stereo not given) | 0.0407 | – | 0.979 | – | 0.48 | – | – | – | 2.86 | – | 0.318 | > 100 | 0.352 | 0.00855 µM and 0.0702 µM | – | 0.000316 | 2.27 | – | – | – |
| O=C1NC2(CCCCC2)C2CCCCC=C12 (stereo not given) | – | > 100 | – | > 100 | – | > 100 | – | > 100 | – | > 100 | – | > 100 | – | > 100 µM | – | – | – | – | – | > 100 |
| COc1cc([C@@H]2OC(=O)C3C2C(=O)O[C@H]3c2ccc(O)c(OC)c2)ccc1O (stereo not given in full) | – | > 100 | – | > 100 | – | > 100 | – | > 100 | – | > 100 | – | > 100 | – | > 100 µM | – | – | – | – | – | > 100 |
| O=C(COC(=O)c1cccc2c(=O)c3ccccc3[nH]c12)Nc1ccc(Cl)cc1 | – | > 100 | – | > 100 | – | > 100 | – | > 100 | – | 78.6 | – | > 100 | – | > 100 µM | – | – | – | – | – | – |
| O=C1CC(Cc2n[nH]c3c2CCCC3)CC(=O)N1 | – | > 100 | – | > 100 | – | – | – | > 100 | – | > 100 | – | > 100 | – | > 100 µM | – | > 100 | – | > 100 | – | > 100 |
| COc1cccc2c(SCC(=O)Nc3ccccc3-c3ccccc3NC(=O)CSc3c4ccccc4nc4c(OC)cccc34)c3ccccc3nc12 | – | > 100 | – | > 100 | – | > 100 | – | – | – | 44.5 | – | – | – | > 100 µM | – | – | – | – | – | – |
| COc1ccc2c(CCCc3ccc(Cl)cc3Cl)c3[n+](cc2c1OC)CCc1cc2c(cc1-3)OCO2 | – | – | 362 | 1.48 | 343 | 1.32 | 873 | 2.2 | – | – | 383 | 1.58 | – | – | 322 | 1.31 | 279 | 1.24 | – | – |
| COC(=O)C12C34C=CC5(CCC6(C=CC1(CC3)O6)C52C(=O)OC)O4 (stereo not given) | – | > 100 | – | > 100 | – | > 100 | – | > 100 | – | – | – | > 100 | – | > 100 µM | – | – | – | – | – | – |
| NC(=O)C(=O)C1C(=O)N(c2ccccc2)N=C1N (stereo not given) | – | > 100 | – | > 100 | – | > 100 | – | > 100 | – | > 100 | – | > 100 | – | – | – | – | – | – | – | > 100 |
| CCn1cc(C(=O)N/N=C/c2cccs2)c(=O)c2cc(F)c(N3CCNC(C)C3)c(F)c21 (stereo not given) | – | – | 1730 | 3.27 | 1750 | 3.24 | 1790 | 3.38 | 1470 | 2.83 | 1710 | 3.17 | 1670 | 3.06 µM | 1780 | 3.24 | 1450 | 2.84 | – | – |
| COC(=O)c1ccc(C(=O)OC)c2nc3cc(Cl)ccc3nc12 | – | > 100 | – | > 100 | – | > 100 | – | > 100 | – | > 100 | – | > 100 | – | > 100 µM | – | – | – | – | – | > 100 |
| C[C@]12CC(C=O)C(=O)C(O)=C1CC[C@@H]1C2CC[C@@]2(C)C1CC[C@]2(C)O (stereo not given in full) | – | 54.3 | – | 74.6 | – | 87 | – | 46.3 | – | 45.9 | – | > 100 | – | 44.9 µM | – | – | – | – | – | 48.8 |
| C=CCC(N[C@H](CO)c1ccccc1)c1ccccn1 (stereo not given in full) | > 100000 | > 100 | > 100000 | > 100 | – | – | > 100000 | > 100 | > 100000 | > 100 | > 100000 | > 100 | > 100000 | > 100 µM | > 100000 | > 100 | > 100000 | > 100 | > 100 | > 100 |
| CN(C)N=Nc1cccc(C(N)=O)c1 | – | > 100 | – | > 100 | – | > 100 | – | > 100 | – | > 100 | – | > 100 | – | > 100 µM | – | – | – | – | – | > 100 |
| Cc1ccc(C)c(NC(=O)C(=O)C2C(=O)N(c3ccccc3)N=C2N)c1 (stereo not given) | – | > 100 | – | > 100 | – | > 100 | – | – | – | > 100 | – | > 100 | – | > 100 µM | – | – | – | – | – | > 100 |
| CCCCCCCCC(C)CCCCCCCCC(=O)OCC(COP(=O)([O-])OCC[N+](C)(C)C)OC(=O)CCCCCCCCC(C)CCCCCCCC (stereo not given) | – | > 100 | – | > 100 | – | > 100 | – | > 100 | – | > 100 | – | > 100 | – | > 100 µM | – | – | – | – | – | > 100 |
| C(=C\c1ccncc1)/c1ccncc1 | > 100000 | > 100 | > 100000 | > 100 | > 100000 | > 100 | > 100000 | > 100 | > 100000 | > 100 | > 100000 | > 100 | > 100000 | > 100 µM | > 100000 | > 100 | > 100000 | > 100 | – | – |
| COC(=O)C(=O)C(C(C)=O)C(=O)NCc1ccccc1 (stereo not given) | – | > 100 | – | > 100 | – | > 100 | – | – | – | > 100 | – | 19 | – | > 100 µM | – | – | – | – | – | > 100 |

— PubChem BioAssay (NCI)
